{"source": "patent US20020035061A1", "about": "“COMPOSITIONS AND METHODS FOR TREATING INFECTIONS USING CATIONIC PEPTIDES ALONE OR IN COMBINATION WITH ANTIBIOTICS” (priority 1996, published 2002)", "assay_in_all_cases": "microbe, parasite or virus in culture", "assay_type_in_all_cases": "cell-based", "key": {"[1]": {"system": "inherently resistant microorganisms"}, "bacterial isolates": {"system": "bacterial isolates", "settings": "for FIC: peptide + Tobramycin"}, "[2]": {"system": "microorganisms with acquired resistance", "settings": "for Peptide MIC Alone: Tobramycin section; for FIC: peptide + Tobramycin"}, "[3]": {"settings": "S. maltophilia (strain code stands in r800, not shown)"}}, "note": "“And” between values parts separate entries of the source, which are not always exact repeats. Equal entries are not always repeated.", "data": [{"substance": "Gentamicin", "values": [{"measurement": "Gentamicin MIC Alone", "setting": "[1]; S. aureus MRSA", "result": 32, "unit": "µg/mL"}, {"measurement": "Gentamicin MIC + Peptide", "setting": "[1]; S. aureus MRSA, peptide MBI 11B16CN", "result": 1, "unit": "µg/mL"}, {"measurement": "Gentamicin MIC Alone", "setting": "bacterial isolates; A. calcoaceticus AC001", "result": 8, "unit": "µg/mL"}, {"measurement": "Gentamicin MIC Alone", "setting": "bacterial isolates; E. faecalis EFS008", "result": ">128 µg/mL and 128 µg/mL"}, {"measurement": "Gentamicin MIC Alone", "setting": "bacterial isolates; E. faecium EFM004", "result": ">128", "unit": "µg/mL"}, {"measurement": "Gentamicin MIC Alone", "setting": "bacterial isolates; P. aeruginosa PA022", "result": "32 µg/mL and 16 µg/mL"}, {"measurement": "Gentamicin MIC Alone", "setting": "bacterial isolates; P. aeruginosa PA023", "result": 8, "unit": "µg/mL"}, {"measurement": "Gentamicin MIC Alone", "setting": "bacterial isolates; P. aeruginosa PA041", "result": "8 µg/mL and 16 µg/mL"}, {"measurement": "Gentamicin MIC Alone", "setting": "bacterial isolates; S. aureus SA014 MRSA", "result": 32, "unit": "µg/mL"}, {"measurement": "Gentamicin MIC Alone", "setting": "bacterial isolates; S. epidermidis SE071", "result": 16, "unit": "µg/mL"}, {"measurement": "Gentamicin MIC Alone", "setting": "bacterial isolates; S. epidermidis SE074", "result": 128, "unit": "µg/mL"}, {"measurement": "Gentamicin MIC Alone", "setting": "bacterial isolates; S. maltophilia (strain line r400 not shown)", "result": 128, "unit": "µg/mL"}, {"measurement": "Gentamicin MIC Alone", "setting": "bacterial isolates; S. maltophilia SMA016", "result": ">128 µg/mL and 128 µg/mL"}, {"measurement": "Gentamicin MIC Alone", "setting": "bacterial isolates; S. maltophilia SMA017", "result": 128, "unit": "µg/mL"}, {"measurement": "Gentamicin MIC Alone", "setting": "[2]; A. baumannii ABI002", "result": "16 µg/mL and 32 µg/mL"}, {"measurement": "Gentamicin MIC Alone", "setting": "[2]; A. calcoaceticus AC001", "result": 8, "unit": "µg/mL"}, {"measurement": "Gentamicin MIC Alone", "setting": "[2]; P. aeruginosa PA022", "result": 32, "unit": "µg/mL"}, {"measurement": "Gentamicin MIC Alone", "setting": "[2]; P. aeruginosa PA023", "result": "8 µg/mL and 16 µg/mL"}, {"measurement": "Gentamicin MIC Alone", "setting": "[2]; P. aeruginosa PA041", "result": "8 µg/mL and 16 µg/mL"}]}, {"substance": "KKWWRRALQALKNGLPALIS [MBI 22A1]", "values": [{"measurement": "Peptide MIC + Tobramycin", "setting": "[1]; S. aureus", "result": 2, "unit": "µg/mL"}, {"measurement": "Peptide MIC Alone", "setting": "[1]; S. aureus, Tobramycin section", "result": 8, "unit": "µg/mL"}, {"measurement": "FIC", "setting": "[1]; peptide + Tobramycin, S. aureus", "result": 0.27}, {"measurement": "Peptide MIC + Tobramycin", "setting": "bacterial isolates; S. aureus SA014 MRSA", "result": 2, "unit": "µg/mL"}, {"measurement": "Peptide MIC Alone", "setting": "bacterial isolates; S. aureus SA014 MRSA", "result": 8, "unit": "µg/mL"}, {"measurement": "Tobramycin MIC + Peptide", "setting": "bacterial isolates; S. aureus SA014 MRSA", "result": 4, "unit": "µg/mL"}, {"measurement": "Peptide MIC + Tobramycin", "setting": "bacterial isolates; S. epidermidis SE072", "result": 8, "unit": "µg/mL"}, {"measurement": "Peptide MIC Alone", "setting": "bacterial isolates; S. epidermidis SE072", "result": 16, "unit": "µg/mL"}, {"measurement": "Tobramycin MIC + Peptide", "setting": "bacterial isolates; S. epidermidis SE072", "result": 0.125, "unit": "µg/mL"}, {"measurement": "Peptide MIC + Tobramycin", "setting": "bacterial isolates; S. epidermidis SE073", "result": 8, "unit": "µg/mL"}, {"measurement": "Peptide MIC Alone", "setting": "bacterial isolates; S. epidermidis SE073", "result": 16, "unit": "µg/mL"}, {"measurement": "Tobramycin MIC + Peptide", "setting": "bacterial isolates; S. epidermidis SE073", "result": 0.125, "unit": "µg/mL"}, {"measurement": "Peptide MIC + Tobramycin", "setting": "bacterial isolates; S. epidermidis SE080", "result": 0.125, "unit": "µg/mL"}, {"measurement": "Peptide MIC Alone", "setting": "bacterial isolates; S. epidermidis SE080", "result": 2, "unit": "µg/mL"}, {"measurement": "Tobramycin MIC + Peptide", "setting": "bacterial isolates; S. epidermidis SE080", "result": 16, "unit": "µg/mL"}, {"measurement": "Peptide MIC + Tobramycin", "setting": "bacterial isolates; [3]", "result": 8, "unit": "µg/mL"}, {"measurement": "Tobramycin MIC + Peptide", "setting": "bacterial isolates; [3]", "result": 0.5, "unit": "µg/mL"}, {"measurement": "Peptide MIC Alone", "setting": "bacterial isolates; S. maltophilia (strain code stands in r800, not shown), Tobramycin section", "result": 32, "unit": "µg/mL"}, {"measurement": "Peptide MIC + Tobramycin", "setting": "bacterial isolates; S. maltophilia SMA030", "result": 8, "unit": "µg/mL"}, {"measurement": "Tobramycin MIC + Peptide", "setting": "bacterial isolates; S. maltophilia SMA030", "result": 1, "unit": "µg/mL"}, {"measurement": "Peptide MIC Alone", "setting": "bacterial isolates; S. maltophilia SMA030, Tobramycin section", "result": 32, "unit": "µg/mL"}, {"measurement": "FIC", "setting": "bacterial isolates; S. aureus SA014 MRSA", "result": 0.27}, {"measurement": "FIC", "setting": "bacterial isolates; S. epidermidis SE072", "result": 0.50}, {"measurement": "FIC", "setting": "bacterial isolates; S. epidermidis SE073", "result": 0.50}, {"measurement": "FIC", "setting": "bacterial isolates; S. epidermidis SE080", "result": 0.56}, {"measurement": "FIC", "setting": "bacterial isolates; [3]", "result": 0.25}, {"measurement": "FIC", "setting": "bacterial isolates; S. maltophilia SMA030", "result": 0.26}, {"measurement": "Peptide MIC + Tobramycin", "setting": "[2]; A. baumannii ABI001", "result": 2, "unit": "µg/mL"}, {"measurement": "Tobramycin MIC + Peptide", "setting": "[2]; A. baumannii ABI001", "result": 4, "unit": "µg/mL"}, {"measurement": "Peptide MIC Alone", "setting": "[2]; A. baumannii ABI001", "result": 4, "unit": "µg/mL"}, {"measurement": "Peptide MIC + Tobramycin", "setting": "[2]; S. epidermidis SE072", "result": 8, "unit": "µg/mL"}, {"measurement": "Tobramycin MIC + Peptide", "setting": "[2]; S. epidermidis SE072", "result": 0.125, "unit": "µg/mL"}, {"measurement": "Peptide MIC Alone", "setting": "[2]; S. epidermidis SE072", "result": 16, "unit": "µg/mL"}, {"measurement": "Peptide MIC + Tobramycin", "setting": "[2]; S. epidermidis SE073", "result": 8, "unit": "µg/mL"}, {"measurement": "Tobramycin MIC + Peptide", "setting": "[2]; S. epidermidis SE073", "result": 0.125, "unit": "µg/mL"}, {"measurement": "Peptide MIC Alone", "setting": "[2]; S. epidermidis SE073", "result": 16, "unit": "µg/mL"}, {"measurement": "Peptide MIC + Tobramycin", "setting": "[2]; S. maltophilia SMA029", "result": "8 µg/mL and 16 µg/mL"}, {"measurement": "Peptide MIC Alone", "setting": "[2]; S. maltophilia SMA029", "result": "16 µg/mL and 32 µg/mL"}, {"measurement": "FIC", "setting": "[2]; A. baumannii ABI001", "result": 0.75}, {"measurement": "FIC", "setting": "[2]; S. epidermidis SE072", "result": 0.50}, {"measurement": "FIC", "setting": "[2]; S. epidermidis SE073", "result": 0.50}, {"measurement": "FIC", "setting": "[2]; S. maltophilia SMA029", "result": "0.51 and 0.50"}]}]}
